What all share (type): biochemical
For test [1], the target named is T1, human KMO (Homo sapiens, UniProt O15229).
T1 construct: full-length human KMO was cloned as an N-terminal GST fusion; GST (N); made in house; host or cells: Sf9 insect cells, used as a membrane fraction
The test can be described thus: Rapidfire mass spectrometry IC50 assay, isolated human KMO. Here is the method:
For the expression and isolation of human KMO membranes, full-length human KMO was cloned as an N-terminal GST fusion, expressed in Sf9 cells and isolated as a membrane fraction as described in Lowe et al.[12]
(§1) Inhibitor IC50 values against isolated human KMO were determined using a Rapidfire mass spectrometry assay as described in Lowe et al.[12] utilizing the Sf9 cell expressed human KMO described above. The inhibitor IC50 values against Pf-KMO were determined using an analogous Rapidfire mass spectrometry assay, utilizing the purified protein described above.

Test [2] concerns the target T2, Pf KMO (Pseudomonas fluorescens, UniProt Q84HF5, C252S/C461S).
T2 construct: Success was made possible by the use of a full-length P. fluorescens orthologue; made in house; host or cells: Escherichia coli BL21 (DE3)
The test can be described thus: Rapidfire mass spectrometry IC50 assay, Pf-KMO. The conditions noted are these: from inhibition curves of Fig. 3b; [Pf-KMO]=1 nM, [L-Kyn]=10 μM, [NADPH]=200 μM. As for the experimental part:
as §1

Test [3] has as its target T1, human KMO. The test can be described thus: Association kinetics (onset of inhibition timecourses). Also on record: steady-state rate Vs, onset of inhibition timecourse: unit not given here. The conditions noted are these: for kobs, onset of inhibition: 200 μM NADPH, 10 μM L-Kyn; for kobs, onset of inhibition at sub-saturating NADPH: 10 nM GSK775(B2), regeneration system. Here is the method: For the association kinetics assays, measurements were performed in a buffer of 50 mM Hepes pH 7.5, 2 mM DTT, 1 mM EDTA, 0.1 mM Chaps. Reactions were performed at ambient temperature, by addition of human KMO enzyme to a mixture of L-Kyn and NADPH containing the test inhibitor. […] Aliquots of the mixtures were quenched into 0.5% TFA in water. L-Kyn and 3-HK levels in the quenched samples were measured using the Rapidfire mass spectrometry method described in Lowe et al.[12] Calibration curves for L-Kyn and 3-HK were used to correct for the lower detection response for 3-HK. Per cent turnover and resulting concentration of 3-HK were calculated for each time point in Excel. kobs values for onset of inhibition were obtained by fitting individual timecourses to equation 1 where t=time, vs=steady-state rate, vi=initial rate and c=background[43]. vi was fixed at the uninhibited rate obtained from the slope of the timecourse in the absence of inhibitor.

The target of test [4] is T1, human KMO. The test can be described thus: Dissociation kinetics (recovery of activity timecourses) and full kinetic analysis. Also on record: steady-state rate Vs after equilibration of inhibitor binding, dissociation timecourse: unit not given here. As for the experimental part: The dissociation kinetics measurements were performed in a buffer of 50 mM Hepes pH 7.5, 2 mM DTT, 1 mM EDTA, 0.1 mM Chaps. […] Aliquots of the reaction mixtures were quenched into 0.5% TFA in water. 3-HK levels in the quenched samples were measured using the Rapidfire mass spectrometry assay described in Lowe et al.[12] A calibration curve for 3-HK was used to convert the data to concentration of 3-HK at each time point. kobs values for recovery of activity were obtained by fitting individual timecourses to equation 1 with vi (initial rate) set to zero.
In this analysis, inhibitor kon was fixed at the value obtained in the association kinetic studies, and kcat and inhibitor koff were the two variable parameters.

In test [5] the target is T1, human KMO. The test can be described thus: Hydrogen peroxide formation, HRP/Amplex Red assay, human KMO. Here is the method:
(§2) Measurements were performed in a buffer of 50 mM Hepes pH 7.5, 0.1 mM Chaps. A two-fold dilution series of test inhibitor and control compounds was prepared from DMSO solutions using the Hewlett-Packard D300 digital dispenser in a 384-well plate and normalized to a final DMSO concentration of 1% in the assay. 10 μl of 80 μg ml^−1 human KMO or 40 nM Pf-KMO were added. After 15 min incubation, 10 μl of a substrate/detection mix (2 U ml^−1 HRP, 20 μM Amplex Red, 40 μM NADPH) were added and the plate was read kinetically on a Tecan M1000 fluorescent plate reader with excitation wavelength 530 nm and emission wavelength 580 nm. A calibration curve comprising a two-fold dilution series of resorufin from 20 μM top concentration was included on the plate, and used to convert assay data to concentration of resorufin formed. Initial rate (μM min^−1) was extracted by linear fitting of the early region of each timecourse. Dose responses were fitted to a four parameter logistic expression where appropriate.

Test [6] addresses T2, Pf KMO. The test can be described thus: Hydrogen peroxide formation, HRP/Amplex Red assay, Pf-KMO. As for the experimental part:
as §2

For test [7], the target named is T2, Pf KMO. The test can be described thus: L-Kyn KM determination, Rapidfire mass spectrometry, Pf-KMO. Here is the method: (§3) The KM of kynurenine for human KMO and for Pf KMO were measured as described in Lowe et al.[12]. The KM of NADPH for human KMO was measured using a regeneration system as described in Lowe et al.[12], with a kynurenine concentration of 10 μM.

The target in test [8] is T1, human KMO. The test can be described thus: NADPH KM determination with regeneration system, human KMO. The conditions noted are these: 10 M Kynurenine (so in the source). Here is the method: as §3
The mark [9] stands for this setting: from inhibition curves of Fig. 3b, read-out: IC50 Human KMO.

SMILES strings stand for the structures. Where two headings read alike, the source gives them in different places.

We go through seven compounds from article PMC5477544, “Structural and mechanistic basis of differentiated inhibitors of the acute pancreatitis target kynurenine-3-monooxygenase” (Nature Communications, 2017).

For orientation: IC50 means the concentration that gives 50% inhibition. As a reminder, the kcat is the maximal rate divided by the concentration of active sites. As a reminder, the Km is the substrate concentration at which the rate is half of its maximum.

T1 sequence (O15229 whole entry, the tested form may be a part): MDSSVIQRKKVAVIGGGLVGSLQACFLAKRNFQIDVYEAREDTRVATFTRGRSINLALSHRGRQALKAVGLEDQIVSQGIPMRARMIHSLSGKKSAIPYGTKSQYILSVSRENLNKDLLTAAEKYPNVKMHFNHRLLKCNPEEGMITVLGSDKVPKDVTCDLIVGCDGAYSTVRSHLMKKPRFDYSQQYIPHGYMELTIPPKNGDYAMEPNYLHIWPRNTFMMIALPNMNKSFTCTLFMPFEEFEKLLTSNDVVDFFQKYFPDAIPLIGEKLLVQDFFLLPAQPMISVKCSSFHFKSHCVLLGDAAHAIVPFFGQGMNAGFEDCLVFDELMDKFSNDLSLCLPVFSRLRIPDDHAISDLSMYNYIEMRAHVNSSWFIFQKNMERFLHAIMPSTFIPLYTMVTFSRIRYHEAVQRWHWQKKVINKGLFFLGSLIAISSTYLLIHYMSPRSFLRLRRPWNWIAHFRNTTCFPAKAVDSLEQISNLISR
T2 sequence (Q84HF5 whole entry C252S/C461S): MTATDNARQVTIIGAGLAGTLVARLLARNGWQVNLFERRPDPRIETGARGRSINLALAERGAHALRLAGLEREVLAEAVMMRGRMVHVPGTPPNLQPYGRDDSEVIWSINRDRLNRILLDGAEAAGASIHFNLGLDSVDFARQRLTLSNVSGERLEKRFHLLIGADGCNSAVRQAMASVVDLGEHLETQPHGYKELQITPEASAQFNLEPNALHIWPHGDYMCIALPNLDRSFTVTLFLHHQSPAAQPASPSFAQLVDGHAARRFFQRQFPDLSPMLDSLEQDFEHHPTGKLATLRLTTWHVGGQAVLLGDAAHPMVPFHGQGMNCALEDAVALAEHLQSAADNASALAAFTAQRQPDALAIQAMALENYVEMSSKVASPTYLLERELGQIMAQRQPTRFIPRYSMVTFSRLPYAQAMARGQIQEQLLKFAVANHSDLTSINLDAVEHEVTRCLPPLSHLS

Consider `C[C@@H](Oc1cc2onc(CCC(=O)O)c2cc1Cl)c1ccccn1` [GSK065], for which the “mean slope of inhibition curve” value at human KMO [1] (human enzyme) was determined as 1.9.
Regarding `Cc1ccc([C@@H](C)Oc2cc3onc(CCC(=O)O)c3cc2Cl)nn1` [GSK366], the half-inhibitory concentration (IC50) at human KMO [1] (setting [9]) stood at 2.3 nM; on human KMO [1] (human enzyme, mean of n determinations given in text, read-out: IC50 (mean potency, in vitro activity)), 2 nM; against Pf KMO [2] it was 0.7 nM. In addition, the “mean slope of inhibition curve” value at human KMO [1] (human enzyme) came to 1.9. For the same compound, the “kobs, onset of inhibition” value on human KMO [3] (5 nM inhibitor) was 0.031 min⁻¹.
As to `Cc1cc2oc(=O)n(CCC(=O)O)c2cc1Cl` [GSK428], the half-inhibitory concentration (IC50) at human KMO [1] (setting [9]) was determined as 10 nM; on Pf KMO [2] it was 60 nM. Moreover, the “Effect of [L-Kyn] on IC50 (mode of inhibition)” value at human KMO [1] (human KMO) is “linear relationship”. Moreover, the “steady-state rate Vs, onset of inhibition timecourse” value on human KMO [3] (10 nM GSK428(A2), last 5 minutes of timecourse, uninhibited Vi = 0.022) is on record as 0.004. Also, the “steady-state rate Vs after equilibration of inhibitor binding, dissociation timecourse” value on human KMO [4] (last 5 minutes of timecourse in presence of GSK428(A2)) is 0.147. In addition, the “Generation of hydrogen peroxide” value at human KMO [5] and on Pf KMO [6] was “stimulate peroxide (H2O2) production” throughout.
Take `C[C@@H](Oc1cc2oc(=O)n(CCC(=O)O)c2cc1Cl)c1ccccn1` [GSK775]: the “kobs, onset of inhibition at sub-saturating NADPH” value was determined as 0.035 min⁻¹ at human KMO [3] (1 uM NADPH), 0.013 min⁻¹ at human KMO [3] (0.3 M NADPH (so in the source)) and 0.069 min⁻¹ on human KMO [3] (5 M NADPH (so in the source)). Besides, the “kobs, onset of inhibition” value on human KMO [3] (10 nM inhibitor) was 0.062 min⁻¹. Further, the “onset kobs, times slower than for GSK428(A2)” value at human KMO [3] (same concentration conditions) was “at least 10 times”. For the same compound, the “dissociation half life of KMO-inhibitor complex” value on human KMO [4] (human KMO) was ~2 h.
In the case of `O=C(O)CCn1c(=O)oc2cc(OCc3ccccn3)c(Cl)cc21` [GSK891], the IC50 on human KMO [1] (setting [9]) is 3.6 nM; against Pf KMO [2], 4.3 nM.
Take `Nc1ccccc1C(=O)CC(N)C(=O)O` [L-Kyn, L-kynurenine]: the kcat at Pf KMO [7] (200 μM NADPH) came out at 2.3 s⁻¹. Further, the Michaelis constant (Km) at Pf KMO [7] (read-out: L-Kyn KM, 200 μM NADPH) was 7 µM.
In the case of `NC(=O)C1=CN([C@@H]2O[C@H](COP(=O)(O)OP(=O)(O)OC[C@H]3O[C@@H](n4cnc5c(N)ncnc54)[C@H](OP(=O)(O)O)[C@@H]3O)[C@@H](O)[C@H]2O)C=CC1` [NADPH], the Km at human KMO [8] came out at 1 µM.
